Data published in US20060078598A1, “Animal feed containing an encapsulated ingredient” (CAN Technologies, Inc., priority 2002, published 2006).
Read-outs that look alike come from different tables or passages of the source.

Experiments:
[1] = feed formula with circa 1.0 wt. % sample, contacted with deionized water
Description: Equal levels of each sample (circa 1.0 wt. % based on total feed weight) were introduced into a feed formula that was placed in a vessel and contacted with deionized water.

[2] = deionized water
Description: Equal levels of each sample (circa 1.0 wt. % of methionine based on total feed weight) were introduced into a feed formula that was placed in a vessel and exposed to deionized water for an hour.

LEACHING LOSS AFTER 30 MINUTES [1]: 40%
percent loss of methionine ([2]; after about 1 minute): about 15 wt. %
percent loss of methionine ([2]; after about 5 minutes): about 22 wt. %
percent loss of methionine ([2]; after about 15 minutes): about 30 wt. %
percent loss of methionine ([2]; after about 60 minutes): about 43 wt. %
SMILES: CSCC[C@H](N)C(=O)O [Uncoated methionine, methionine]
